Reference: the supplement of paper PMC10307832

Experiments:
Test in all cases: relative viability (nuclei count vs DMSO), 5 days (fraction); higher = more cells survive
[1] = tested on: CAL-12T
In short: (§1)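 Nuclei were stained with Hoechst during a one-step fixation (final 0.05% Triton X-100, 1% formaldehyde, 1 ug/ml Hoechst) carried out 5 days after dosing, then counted on 4× images. The cells, lung cancer lines in 1536-well plates, had been dosed by pin tool the day after seeding with one drug alone or a fixed anchor-drug dose plus five library-drug doses (not always all listed) in √10 steps. Relative viability is the nuclei count in treated wells divided by that in vehicle wells, and each value is the median of duplicate plates.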

[2] = tested on: COR-L23
In short: as §1

[3] = tested on: EKVX
In short: as §1

[4] = tested on: H3255
In short: as §1

[5] = tested on: HCC-15
In short: as §1

[6] = tested on: HCC-827
In short: as §1

[7] = tested on: LK-2
In short: as §1

[8] = tested on: NCI-H1355
In short: as §1

[9] = tested on: NCI-H1437
In short: as §1

[10] = tested on: NCI-H1650
In short: as §1

[11] = tested on: NCI-H1651
In short: as §1

[12] = tested on: NCI-H1734
In short: as §1

[13] = tested on: NCI-H2228
In short: as §1

[14] = tested on: NCI-H2405
In short: as §1

[15] = tested on: NCI-H322M
In short: as §1

[16] = tested on: NCI-H520
In short: as §1

[17] = tested on: PC-14
In short: as §1

[18] = tested on: PC-3 [JPC-3]
In short: as §1

[19] = tested on: RERF-LC-KJ
In short: as §1

[20] = tested on: SK-MES-1
In short: as §1

[21] = tested on: SW 1573
In short: as §1

C[C@@H]1CN(CC(=O)Nc2ccc3c(c2)Cc2cccc(-c4cc(=O)cc(N5CCOCC5)o4)c2S3)C[C@H](C)O1 + CC1(C)CCC(c2ccc(Cl)cc2)=C(CN2CCN(c3ccc(C(=O)NS(=O)(=O)c4ccc(N[C@H](CCN5CCOCC5)CSc5ccccc5)c(S(=O)(=O)C(F)(F)F)c4)cc3)CC2)C1 [Navitoclax] (partner 0.5 µM)
relative viability ([1]; first compound 0.04 µM): 1.42
relative viability ([1]; first compound 0.1265 µM): 1.11
relative viability ([1]; first compound 0.4 µM): 1.07
relative viability ([1]; first compound 4 µM): 0.652
relative viability ([2]; first compound 0.04 µM): 1.25
relative viability ([2]; first compound 0.1265 µM): 0.985
relative viability ([2]; first compound 0.4 µM): 1.17
relative viability ([2]; first compound 4 µM): 0.962
relative viability ([3]; first compound 0.04 µM): 0.899
relative viability ([3]; first compound 0.1265 µM): 0.894
relative viability ([3]; first compound 0.4 µM): 0.862
relative viability ([3]; first compound 4 µM): 0.812
relative viability ([4]; first compound 0.04 µM): 0.475
relative viability ([4]; first compound 0.1265 µM): 0.411
relative viability ([4]; first compound 0.4 µM): 0.463
relative viability ([4]; first compound 4 µM): 0.518
relative viability ([5]; first compound 0.04 µM): 0.7
relative viability ([5]; first compound 0.1265 µM): 0.639
relative viability ([5]; first compound 0.4 µM): 0.682
relative viability ([5]; first compound 4 µM): 0.556
relative viability ([6]; first compound 0.04 µM): 0.931
relative viability ([6]; first compound 0.1265 µM): 0.944
relative viability ([6]; first compound 0.4 µM): 1.04
relative viability ([6]; first compound 4 µM): 1.03
relative viability ([7]; first compound 0.1265 µM): 0.83
relative viability ([7]; first compound 0.4 µM): 0.831
relative viability ([7]; first compound 4 µM): 1.02
relative viability ([8]; first compound 0.04 µM): 0.978
relative viability ([8]; first compound 0.1265 µM): 0.894
relative viability ([8]; first compound 0.4 µM): 0.856
relative viability ([8]; first compound 4 µM): 0.899
relative viability ([9]; first compound 0.04 µM): 1.14
relative viability ([9]; first compound 0.1265 µM): 1.1
relative viability ([9]; first compound 0.4 µM): 1.13
relative viability ([9]; first compound 4 µM): 0.882
relative viability ([10]; first compound 0.04 µM): 1.25
relative viability ([10]; first compound 0.1265 µM): 1.09
relative viability ([10]; first compound 0.4 µM): 1.38
relative viability ([10]; first compound 4 µM): 0.969
relative viability ([11]; first compound 0.04 µM): 1.05
relative viability ([11]; first compound 0.1265 µM): 0.987
relative viability ([11]; first compound 0.4 µM): 0.836
relative viability ([11]; first compound 4 µM): 1.03
relative viability ([12]; first compound 0.04 µM): 0.783
relative viability ([12]; first compound 0.1265 µM): 0.886
relative viability ([12]; first compound 0.4 µM): 0.808
relative viability ([12]; first compound 4 µM): 0.923
relative viability ([13]; first compound 0.04 µM): 1.02
relative viability ([13]; first compound 0.1265 µM): 1.11
relative viability ([13]; first compound 0.4 µM): 0.639
relative viability ([13]; first compound 4 µM): 0.753
relative viability ([14]; first compound 0.04 µM): 1.02
relative viability ([14]; first compound 0.1265 µM): 1.1
relative viability ([14]; first compound 0.4 µM): 0.866
relative viability ([14]; first compound 4 µM): 0.872
relative viability ([15]; first compound 0.04 µM): 1.17
relative viability ([15]; first compound 0.1265 µM): 1.18
relative viability ([15]; first compound 0.4 µM): 1.23
relative viability ([15]; first compound 4 µM): 1.12
relative viability ([16]; first compound 0.04 µM): 1.2
relative viability ([16]; first compound 0.1265 µM): 1.03
relative viability ([16]; first compound 0.4 µM): 0.888
relative viability ([16]; first compound 4 µM): 1.08
relative viability ([17]; first compound 0.04 µM): 1.04
relative viability ([17]; first compound 0.1265 µM): 0.987
relative viability ([17]; first compound 0.4 µM): 1.01
relative viability ([17]; first compound 4 µM): 0.797
relative viability ([18]; first compound 0.04 µM): 0.875
relative viability ([18]; first compound 0.1265 µM): 0.795
relative viability ([18]; first compound 0.4 µM): 0.836
relative viability ([18]; first compound 4 µM): 0.835
relative viability ([19]; first compound 0.04 µM): 0.736
relative viability ([19]; first compound 0.1265 µM): 1.12
relative viability ([19]; first compound 0.4 µM): 1.16
relative viability ([19]; first compound 4 µM): 0.713
relative viability ([20]; first compound 0.04 µM): 1.37
relative viability ([20]; first compound 0.1265 µM): 1.16
relative viability ([20]; first compound 0.4 µM): 1.1
relative viability ([20]; first compound 4 µM): 1.1
relative viability ([21]; first compound 0.04 µM): 0.979
relative viability ([21]; first compound 0.1265 µM): 1.05
relative viability ([21]; first compound 0.4 µM): 0.846
relative viability ([21]; first compound 4 µM): 0.842
